# From US7816522B2, “Triazolone derivatives” (Eisai Co., Ltd., priority 2006, dated 2010)
# Where a name gives a salt, the structure may show the parent alone.
# Target: T1, human clotting factor VIIa (Homo sapiens, UniProt P08709)
# T1 construct: a human clotting factor VIIa (hereinafter, “Factor VIIa”) purified sample; purchased Enzyme Research Laboratories HFVIIa
# Assay: Inhibitory activity against clotting factor VIIa (chromogenic substrate Spectrozyme FVIIa, TF/Factor VIIa enzyme solution)
# Assay type: biochemical
# Details: human Factor VIIa 5 nmol/L with human TF 10 nmol/L, room temperature 40 minutes, 405 nm
# How it was run: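 Human Factor VIIa (5 nmol/L) with human TF (10 nmol/L) in Tris-BSA buffer pH 7.4 containing 15 mmol/L CaCl2 and cephalin, with Spectrozyme FVIIa substrate. Reaction 40 min at room temperature; 4-nitroanilide read at 405 nm. IC50 by non-linear regression over 100 μmol/L–0.1 nmol/L.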
# T1 sequence (P08709 213-466 limits assumed): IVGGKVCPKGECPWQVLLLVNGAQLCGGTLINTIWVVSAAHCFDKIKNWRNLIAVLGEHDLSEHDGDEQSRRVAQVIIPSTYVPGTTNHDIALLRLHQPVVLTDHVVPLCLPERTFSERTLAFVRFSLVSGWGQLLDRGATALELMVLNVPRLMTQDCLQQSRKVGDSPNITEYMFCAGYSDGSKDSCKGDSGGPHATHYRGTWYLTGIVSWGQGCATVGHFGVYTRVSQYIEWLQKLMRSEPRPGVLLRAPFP
# T1 sequence (P08709 61-212 limits assumed): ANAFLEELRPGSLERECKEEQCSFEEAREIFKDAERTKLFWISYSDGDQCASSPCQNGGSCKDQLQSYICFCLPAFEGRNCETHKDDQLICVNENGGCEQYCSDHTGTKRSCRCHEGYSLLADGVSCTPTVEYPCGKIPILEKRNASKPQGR
# T1 sequence (P13726 33-295 partner): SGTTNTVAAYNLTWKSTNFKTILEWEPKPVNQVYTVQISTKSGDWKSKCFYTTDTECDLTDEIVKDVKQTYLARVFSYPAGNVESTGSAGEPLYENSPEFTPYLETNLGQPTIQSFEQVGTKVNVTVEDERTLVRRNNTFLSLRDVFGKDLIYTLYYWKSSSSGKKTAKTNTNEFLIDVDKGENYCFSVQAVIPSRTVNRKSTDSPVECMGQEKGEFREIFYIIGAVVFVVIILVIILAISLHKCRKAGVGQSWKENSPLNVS
row,IC50 [nM],SMILES
1,6.6,"COc1ccc(C(Nc2ccc(C(=N)N)cc2)c2nn(-c3ccccc3C(N)=O)c(=O)[nH]2)cc1OC (racemic) [Example 110, (R) and (S)-2-{3-[(4-carbamimidoylphenylamino)-(3,4-dimethoxyphenyl)methyl]-5-oxo-4,5-dihydro-1H-[1,2,4]triazol-1-yl}benzamide acetate]"
2,10.9,"CCOc1cc(C(Nc2ccc(C(=N)N)cc2)c2nn(-c3ncccc3OC)c(=O)[nH]2)ccc1OCC(=O)NC (centres unmarked) [Example 126, 2-(4-{(4-carbamimidoylphenylamino)-[1-(3-methoxypyridin-2-yl)-5-oxo-4,5-dihydro-1H-[1,2,4]triazol-3-yl]methyl}-2-ethoxyphenoxy)-N-methyl-acetamide acetate]"
3,23.9,"COc1cc(C(Nc2ccc(C(=N)N)cc2)c2nn(-c3ncccn3)c(=O)[nH]2)cc(CO)c1OC (centres unmarked) [Example 23, 4-{[(5-hydroxymethyl-3,4-dimethoxyphenyl)-(5-oxo-1-pyrimidin-2-yl-4,5-dihydro-1H-[1,2,4]triazol-3-yl)methyl]amino}benzamidine acetate]"
4,10.6,"COc1cc(C(Nc2ccc(C(=N)N)cc2)c2nn(-c3ncccn3)c(=O)[nH]2)ccc1OCF (racemic) [Example 53, (R) and (S)-4-{[(4-fluoromethoxy-3-methoxyphenyl)-(5-oxo-1-pyrimidin-2-yl-4,5-dihydro-1H-[1,2,4]triazol-3-yl)methyl]amino}benzamidine acetate]"
5,11.6,"COCCOc1cc(OC)cc(C(Nc2ccc(C(=N)N)cc2)c2nn(-c3ncccn3)c(=O)[nH]2)c1F (racemic) [Example 92, 4-{[(R) and (S)-[2-fluoro-5-methoxy-3-(2-methoxyethoxy)phenyl]-(5-oxo-1-pyrimidin-2-yl-4,5-dihydro-1H-[1,2,4]triazol-3-yl)methyl]amino}benzamidine acetate]"
6,8.1,"COc1cc(C(Nc2ccc(C(=N)N)cc2)c2nn(-c3cccnn3)c(=O)[nH]2)cc(CC#N)c1F (racemic) [Example 146, (R) and (S)-4-{[(3-cyanomethyl-4-fluoro-5-methoxyphenyl)-(5-oxo-1-pyridazin-3-yl-4,5-dihydro-1H-[1,2,4]triazol-3-yl)methyl]amino}benzamidine acetate]"
7,7.9,"COc1cc(OC)c(F)c(C(Nc2ccc(C(=N)N)cc2)c2nn(-c3ncccn3)c(=O)[nH]2)c1 (racemic) [Example 66, (R) and (S)-4-{[(2-fluoro-3,5-dimethoxyphenyl)-(5-oxo-1-pyrimidin-2-yl-4,5-dihydro-1H-[1,2,4]triazol-3-yl)methyl]amino}benzamidine acetate]"
8,7.5,"COc1cc(F)c(C(Nc2ccc(C(=N)N)cc2)c2nn(-c3ccccc3C(=O)O)c(=O)[nH]2)cc1OC (racemic) [Example 1, (R) and (S)-2-{3-[(4-carbamimidoylphenylamino)-(2-fluoro-4,5-dimethoxyphenyl)methyl]-5-oxo-4,5-dihydro-[1,2,4]triazol-1-yl}benzoic acid acetate]"
9,12,"COCCOc1cc(OC)cc(C(Nc2ccc(C(=N)N)cc2)c2nn(-c3ncccc3N)c(=O)[nH]2)c1F (centres unmarked) [Example 202, 4-({[1-(3-Aminopyridin-2-yl)-5-oxo-4,5-dihydro-1H-[1,2,4]triazol-3-yl]-[2-fluoro-5-methoxy-3-(2-methoxyethoxy)phenyl]methyl}amino)benzamidine acetate]"
10,11.7,"COc1cc(F)c(C(Nc2ccc(C(=N)N)cc2)c2nn(-c3ncccc3Br)c(=O)[nH]2)cc1OC (centres unmarked) [Example 134, 4-({[1-(3-bromopyridin-2-yl)-5-oxo-4,5-dihydro-1H-[1,2,4]triazol-3-yl]-(2-fluoro-4,5-dimethoxyphenyl)methyl}amino)benzamidine acetate]"
11,39.1,"COc1cc(OC)c(F)c(C(Nc2ccc(C(=N)N)cc2)c2nn(-c3cccc(C(=O)O)n3)c(=O)[nH]2)c1 (centres unmarked) [Example 210, 6-{3-[(4-Carbamimidoylphenylamino)-(2-fluoro-3,5-dimethoxyphenyl)methyl]-5-oxo-4,5-dihydro-[1,2,4]triazol-1-yl}pyridine-2-carboxylic acid trifluoroacetate]"
12,6.7,"COc1cc(C(Nc2ccc(C(=N)N)cc2)c2nn(-c3ncccn3)c(=O)[nH]2)c(F)c2c1OCCC2 (racemic) [Example 33, (R) and (S)-4-{[(5-fluoro-8-methoxychroman-6-yl)-(5-oxo-1-pyrimidin-2-yl-4,5-dihydro-1H-[1,2,4]triazol-3-yl)methyl]amino}benzamidine acetate]"
13,48.8,"COc1cc(O)c(F)c(C(Nc2ccc(C(=N)N)cc2)c2nn(-c3ncccn3)c(=O)[nH]2)c1 (centres unmarked) [Example 224, 4-{[(2-Fluoro-3-hydroxy-5-methoxyphenyl)-(5-oxo-1-pyrimidin-2-yl-4,5-dihydro-1H-[1,2,4]triazol-3-yl)methyl]amino}benzamidine acetate]"
14,5.2,"COc1cc(C(Nc2ccc(C(=N)N)cc2)c2nn(-c3ncccc3N)c(=O)[nH]2)c(F)c2c1OCC2 (racemic) [Example 52, (R) and (S)-4-({[1-(3-aminopyridin-2-yl)-5-oxo-4,5-dihydro-1H-[1,2,4]triazol-3-yl]-(4-fluoro-7-methoxy-2,3-dihydrobenzofuran-5-yl)methyl}amino)benzamidine diacetate]"
15,7.6,"CCOc1cc(OCC)cc(C(Nc2ccc(C(=N)N)cc2)c2nn(-c3ncccn3)c(=O)[nH]2)c1 (racemic) [Example 79, (R) and (S)-4-{[(3,5-diethoxyphenyl)-(5-oxo-1-pyrimidin-2-yl-4,5-dihydro-1H-[1,2,4]triazol-3-yl)methyl]amino}benzamidine trifluoroacetate]"
16,5.6,"COc1cc(C(Nc2ccc(C(=N)N)cc2)c2nn(-c3ncccn3)c(=O)[nH]2)cc(CC#N)c1F (racemic) [Example 131, (R) and (S)-4-{[(3-cyanomethyl-4-fluoro-5-methoxyphenyl)-(5-oxo-1-pyrimidin-2-yl-4,5-dihydro-1H-[1,2,4]triazol-3-yl)methyl]amino}benzamidine acetate]"
17,3.8,"CCc1cc(OCCN(C)C)c(F)c(C(Nc2ccc(C(=N)N)cc2)c2nn(-c3ccccc3N)c(=O)[nH]2)c1 (centres unmarked) [Example 139, 4-({[1-(2-aminophenyl)-5-oxo-4,5-dihydro-1H-[1,2,4]triazol-3-yl]-[3-(2-dimethylaminoethoxy)-5-ethyl-2-fluorophenyl]methyl}amino)benzamidine bistrifluoroacetate]"
18,9,"COc1cc(F)c(C(Nc2ccc(C(=N)N)cc2)c2nn(-c3nc[nH]c3C(=O)O)c(=O)[nH]2)cc1OC (single isomer, unassigned) [Example 187, 5-{3-[(4-Carbamimidoylphenylamino)-(2-fluoro-4,5-dimethoxyphenyl)methyl]-5-oxo-4,5-dihydro-[1,2,4]triazol-1-yl}-3H-imidazole-4-carboxylic acid]"
19,20.6,"COc1cc(C(Nc2ccc(C(=N)N)cc2)c2nn(-c3ncccn3)c(=O)[nH]2)cc(C)n1 (racemic) [Example 39, (R) and (S)-4-{[(2-methoxy-6-methyl-pyridin-4-yl)-(5-oxo-1-pyrimidin-2-yl-4,5-dihydro-1H-[1,2,4]triazol-3-yl)methyl]amino}benzamidine acetate]"
20,4.3,"COc1cc(F)c(C(Nc2ccc(C(=N)N)cc2)c2nn(-c3ccccc3N)c(=O)[nH]2)cc1OC (centres unmarked) [Example 107, 4-({[1-(2-aminophenyl)-5-oxo-4,5-dihydro-1H-[1,2,4]triazol-3-yl]-(2-fluoro-4,5-dimethoxyphenyl)methyl}amino)benzamidine trifluoroacetate]"
21,1.3,"COc1ccccc1-n1nc(C(Nc2ccc(C(=N)N)cc2)c2cc3c(c(OC)c2)OCOC3)[nH]c1=O (racemic) [Example 95, 4-({(R) and (S)-(8-methoxy-4H-benzo[1,3]dioxin-6-yl)-[1-(2-methoxyphenyl)-5-oxo-4,5-dihydro-1H-[1,2,4]triazol-3-yl]methyl}amino)benzamidine acetate]"
22,22.4,"COc1ccc(C(Nc2ccc(C(=N)N)cc2)c2nn(-c3ncccn3)c(=O)[nH]2)cc1OCCF (racemic) [Example 117, (R) and (S)-4-({[3-(2-fluoroethoxy)-4-methoxyphenyl]-(5-oxo-1-pyrimidin-2-yl-4,5-dihydro-1H-[1,2,4]triazol-3-yl)methyl}amino)benzamidine acetate]"
23,3.2,"COc1cc(OCCF)c(F)c(C(Nc2ccc(C(=N)N)cc2)c2nn(-c3cccnc3N)c(=O)[nH]2)c1 (racemic) [Example 50, (R) and (S)-4-({[1-(2-aminopyridin-3-yl)-5-oxo-4,5-dihydro-1H-[1,2,4]triazol-3-yl]-[2-fluoro-3-(2-fluoroethoxy)-5-methoxyphenyl]methyl}amino)benzamidine diacetate]"
24,10,"COc1cc(COCCF)cc(C(Nc2ccc(C(=N)N)cc2)c2nn(-c3ncccn3)c(=O)[nH]2)c1 (racemic) [Example 72, (R) and (S)-4-({[3-(2-fluoroethoxymethyl)-5-methoxyphenyl]-(5-oxo-1-pyrimidin-2-yl-4,5-dihydro-1H-[1,2,4]triazol-3-yl)methyl}amino)benzamidine acetate]"
25,85.6,"COc1cc(C(Nc2ccc(C(=N)N)cc2)c2nn(-c3ncccn3)c(=O)[nH]2)c(F)cc1OCCO (racemic) [Example 208, 4-{[(R) and (S)-[2-Fluoro-4-(2-hydroxyethoxy)-5-methoxyphenyl]-(5-oxo-1-pyrimidin-2-yl-4,5-dihydro-1H-[1,2,4]triazol-3-yl)methyl]amino}benzamidine acetate]"
26,3.8,"CCOc1cc(C(Nc2ccc(C(=N)N)cc2)c2nn(-c3ccsc3C(=O)O)c(=O)[nH]2)cnc1OC (racemic) [Example 235, 3-{3-[(4-Carbamimidoylphenylamino)-(5-ethoxy-6-methoxypyridin-3-yl)methyl]-5-oxo-4,5-dihydro-[1,2,4]triazol-1-yl}thiophene-2-carboxylic acid]"
